Laboratory results: paper PMC12040169 (PLOS Biology, 2025)

Experiment: in vitro
Conditions: human, hela cells, % viability

Row | Compound | viability at 28.5 h, 10 µM [%] | viability at 28.5 h, 10 µM (bulk resorufin, single well) [%]
1 | COc1ccccc1CN1CCCC(c2nc(C)n3ccccc23)C1 (stereo not drawn) [CBK283026] | 87.6 | 
2 | CC1CCC(C(N)=O)CN1C(=O)c1ccc(Oc2cccc(Br)c2)nc1 (stereo not drawn) [CBK306005] | 106 | 
3 | O=C(c1cccs1)N1CCCN(c2nccc(C(F)(F)F)n2)CC1 [CBK019390] | 89.4 | 
4 | O=[N+]([O-])c1ccc(S(=O)(=O)CC(CN2CCCC2)N2CCCC2)cc1 (stereo not drawn) [CBK266991] | 112 | 
5 | COc1ccc(-c2c(C)nc(N)nc2-c2ccc(OC)cc2O)cc1 [CBK288186] | 85.7 | 
6 | Cc1cc(CN(C)C(=O)Cc2csc(NC(=O)c3ccoc3C)n2)no1 [CBK305779] | 102 | 
7 | COc1ccc(OC)c(S(=O)(=O)N2CCN(C(=O)c3cc(-c4ccncc4)nc4c(C)cc(C)cc34)CC2)c1 [CBK267778] | 103 | 
8 | Cc1nc2ccc(C(=O)N3CCN(C)CC3)cn2c1N(C)C(=O)CCc1ccccc1 [CBK146786] | 95.3 | 
9 | O=S(=O)(Nc1nnn[nH]1)c1ccc(N2CCOCC2)nc1 [CBK062385] | 99 | 
10 | CCOC(=O)c1c(NC(=O)Cn2nc(C(F)(F)F)c(Cl)c2C)sc2c1CCCC2 [CBK263019] | 98.5 | 
11 | CC(C)c1ccc(NC(=O)CSc2nnc(Cc3cccc4ccccc34)o2)cc1 [CBK267371] | 88.7 | 
12 | CN(C)C(=O)c1ccc(Cn2nc(C(=O)Nc3nccs3)c3ccccc32)cc1 [CBK047701] |  | 95.4
13 | O=C(Nc1ccc2oc(-c3cccnc3)nc2c1)c1cccc(-c2cc3ccccc3oc2=O)c1 [CBK268612] | 89.3 | 
14 | CC(=O)Oc1cccc(C(=O)O)c1C [CBK038235] | 87.7 | 
15 | O=C(NCCn1nc(-c2cccs2)oc1=O)C1CCCCC1 [CBK282343] | 105 | 
16 | CC(C)CNC(=S)N[C@H]1CO[C@H]2[C@@H]1OC[C@@H]2Nc1nccc(C(C)(C)C)n1 [CBK289523] | 90.9 | 
17 | COc1ccc(NC(=O)Nc2ccccc2C(N)=O)cc1OC [CBK267061] | 94.1 | 
18 | COC(=O)CNC(=O)c1ccc(S(=O)(=O)N2CCOCC2)cc1 [CBK264873] | 109 | 
19 | O=c1[nH]nc2c3c4c(sc3ncn12)CCCC4 [CBK284235] | 56.8 | 
20 | COCCNc1nc2c(c(N3CCCC(C#N)C3)n1)CCNCC2 (stereo not drawn) [CBK307412] | 87.2 | 
21 | O=C(CC1Nc2ccccc2NC1=O)Nc1cccc(C(=O)O)c1 (stereo not drawn) [CBK263155] | 102 | 
22 | Cc1ccccc1CSCC(=O)Nc1c[nH]c(=O)[nH]c1=O [CBK269790] | 86.8 | 
23 | Cc1noc(C)c1C(=O)N1CCC(c2ccncc2)CC1 [CBK282334] | 110 | 

Row | Compound | viability at 28.5 h, 10 µM [%] | viability at 28.5 h, 10 µM (bulk resorufin, single well) [%]
24 | COc1ccc(C=CC(=O)ONC(=O)c2ccc(OC(F)F)cc2)cc1OC [CBK296098] | 92.8 | 
25 | CCn1c(C)nc2cc(NC(=O)c3c4c(nn3C)CCCC4)ccc21 [CBK281831] | 93.8 | 
26 | O=C(CSc1ccccc1)Nc1nccs1 [CBK288213] | 109 | 
27 | Cc1ccc(-c2csc3ncnc(SCc4csc(C)n4)c23)cc1 [CBK267244] | 91.7 | 
28 | Cc1ccc2c(N)c(C(=O)c3ccccc3)sc2n1 [CBK115347] | 88.1 | 
29 | Cc1ccc(CNC(=O)c2cnoc2-c2ccc(Br)cc2)cc1F [CBK154896] | 93.8 | 
30 | COc1ccc(-c2c(C(F)(F)F)oc3c(CN4CC(C)OC(C)C4)c(O)ccc3c2=O)cc1OC (stereo not drawn) [CBK217829] | 100 | 
31 | CCSc1ncc(Cl)c(C(=O)N(Cc2cccc(Br)c2)C2CCS(=O)(=O)C2)n1 (stereo not drawn) [CBK268969] | 90.3 | 
32 | O=C(NC1CCN(CC2(c3ccccc3)CC2)CC1)c1ccco1 [CBK285321] | 83.7 | 
33 | Cc1ccc(NC(=O)Nc2ccc(F)cc2)cc1S(=O)(=O)N(C)C [CBK269482] | 92.8 | 
34 | COc1c(C)cccc1C(=O)NC(=S)Nc1sc2c(c1C(N)=O)CCC2 [CBK265587] | 84.4 | 
35 | CCn1nc(C(C)C)cc1C(=O)N1CCN(C)CC1c1ccccc1 (stereo not drawn) [CBK282025] | 100 | 
36 | O=C(c1cccc(S(=O)(=O)Nc2ccccn2)c1)N1CCCc2ccccc21 [CBK269645] | 84.9 | 
37 | CN(Cc1ccc(O)cc1)C(=O)NC1CCCc2c1cnn2CCO (stereo not drawn) [CBK305354] | 86.3 | 
38 | O=C(O)CCn1cc(CN2CCOc3ccccc3C2)cn1 [CBK306507] | 101 | 
39 | CCc1c(C)sc2ncn(C3CCNCC3)c(=O)c12 [CBK282972] | 81.2 | 
40 | CN(C)CCCNc1oc(/C=C/c2cccs2)nc1C#N [CBK269317] | 86.7 | 
41 | OCCN1CCN(CCCc2ccccc2)CC1 [CBK261872] | 86 | 
42 | O=C(C[C@@H]1O[C@H](CNCc2cccc(Cl)c2)[C@@H](O)[C@H]1O)N1CCCC1 [CBK288914] | 95 | 
43 | COc1ccccc1CC(=O)N1CCCC(c2cc3ncccc3[nH]2)C1 (stereo not drawn) [CBK283417] | 95.4 | 
44 | Cn1cc(C(=O)N2CCc3ncc(Cl)cc3C2)ccc1=O [CBK285130] | 100 | 
45 | CC(c1cc2ccccc2s1)N(O)C(N)=O (stereo not drawn) [CBK008078] | 98.2 | 
46 | CCCCCOc1ccc(Nc2ccc(-c3cccc(Cl)c3Cl)cn2)cc1 [CBK036856] | 111 | 

Row | Compound | viability at 28.5 h, 10 µM [%] | viability at 28.5 h, 10 µM (bulk resorufin, single well) [%]
47 | CC(Cn1cccn1)C(=O)N1CCc2sccc2C1C (stereo not drawn) [CBK282074] | 103 | 
48 | CC(=O)N1CCc2c([nH]c3ccccc23)C1CNCc1ccc(F)cc1 (stereo not drawn) [CBK066968] | 96.6 | 
49 | Fc1ccc(CNc2c(-c3ccco3)nc3cnccn23)cc1 [CBK283694] | 92 | 
50 | COc1ccc(NC(=O)c2cc3nc(C)ccc3o2)cc1 [CBK287663] | 102 | 
51 | O=C(Nc1cncc(OC2CCNCC2)n1)c1cnc2ccccc2c1 [CBK036377T] | 92.8 | 
52 | O=S(=O)(N1CCOCC1)N1CCN(CC(O)COc2ccc(-c3ccccc3)cc2)CC1 (stereo not drawn) [CBK269301] | 106 | 
53 | Cc1nc2ccc(C(=O)NC3CCCOC3)cc2s1 (stereo not drawn) [CBK282509] | 82.8 | 
54 | O=C(Nc1ccccc1)NC(N1CCOCC1)C(Cl)(Cl)Cl (stereo not drawn) [CBK261293] | 103 | 
55 | NC(=O)CN1CC2(CCN(CCCCC3NC(=O)NC3=O)CC2)c2ccccc21 (stereo not drawn) [CBK126799] | 95.9 | 
56 | COC(=O)[C@H]1CN(C(=O)CN2CCCC2=O)C[C@@H]1c1ccccc1F [CBK283518] | 89.2 | 
57 | Nc1nc2c(sc(=O)n2[C@@H]2O[C@H](CO)[C@H](O)C2O)c(=O)[nH]1 (stereo partly drawn) [CBK201286] | 96 | 
58 | CC(C)C(=O)Nc1cccc(C(=O)Nc2nnc(C(F)(F)F)s2)c1 [CBK073453] | 107 | 
59 | CC(O)CNCCNCc1cccs1 (stereo not drawn) [CBK278279C] | 109 | 
60 | CC(=O)Nc1ccc(CNc2ccc(Cl)cc2)cc1 [CBK012799] | 104 | 
61 | COc1ccc2cc(C(=O)NCCCc3ccccn3)n(C)c2c1 [CBK282545] | 103 | 
62 | CCC(=O)Nc1nc2ccccc2n1CCN1CCOCC1 [CBK261477] | 101 | 
63 | CN(C)CCN(C)c1cccc(-c2cccc(OC(F)(F)F)c2)n1 [CBK037020] | 102 | 
64 | Cc1ccc(S(=O)(=O)N(CC(=O)Nc2cccnc2)c2cccc(Br)c2)cc1 [CBK264094] | 62.8 | 
65 | Cc1ccc2cccc(OS(=O)(=O)c3ccc(Cl)c(C)c3Cl)c2n1 [CBK263984] | 53.7 | 
66 | Cc1c(NC(=S)NC(=O)Cc2ccccc2)cccc1-c1nc2ncccc2o1 [CBK264345] | 118 | 
67 | Cc1ccc(C2=CCN(CC(=O)Nc3nc(C)c(C)s3)CC2)o1 [CBK283607] | 99.1 | 
68 | O=C(Cc1ccc(F)cc1Cl)N1CCn2c(nnc2C2CC2)C1 [CBK283773] | 87.8 | 
69 | CCCCOc1nccnc1-c1cnn(C)c1 [CBK107085] | 92.8 | 

Row | Compound | viability at 28.5 h, 10 µM [%] | viability at 28.5 h, 10 µM (bulk resorufin, single well) [%]
70 | O=C(O)CCC(=O)CCC(=O)c1cccs1 [CBK264807] | 94.2 | 
71 | CCC(CO)Nc1cncc(-c2cc(C(C)C)ccc2OC)n1 (stereo not drawn) [CBK065743] | 91.7 | 
72 | c1cncc(C(N2CCOCC2)N2CCOCC2)c1 [CBK260999] | 94.5 | 
73 | CCc1ccc(CN2CCN(Cc3cc(Br)ccc3O)CC2)cc1 [CBK263666] |  | 96.5
74 | O=C1CC(c2cccs2)CC(=O)C1=CNCCN1CCNCC1 (stereo not drawn) [CBK264785] | 105 | 
75 | Cc1cccnc1NC(=S)Nc1ccc(S(N)(=O)=O)cc1 [CBK267049] | 111 | 
76 | COc1ccc(-c2ccc(C(=O)NCCN3CCOCC3)c(N(C)C(C)=O)n2)cc1 [CBK076545] | 102 | 
77 | CC(C)(Oc1ccc(Cl)cc1)C(=O)O/N=C(\N)c1ccc(I)cc1 [CBK268760] | 97.2 | 
78 | CCOC(=O)C1(c2ccccc2)CCN(C(=O)CCN2CCN(C)CC2)CC1 [CBK132211] |  | 86.2
79 | Cc1nc(C2CCCN(C(=O)CCn3cccn3)C2)c2sccn12 (stereo not drawn) [CBK285234] | 86.7 | 
80 | O=C(CSCc1ccc(Br)cc1)NCC1CCCO1 (stereo not drawn) [CBK268506] | 87.3 | 
81 | CCN(CC)C(=O)[C@@H]1CCCN(C2CCN(C(=O)c3c4ccccc4cc4ccccc34)CC2)C1 [CBK066966C] | 90.4 | 
82 | CCCC1NCCn2cccc21 (stereo not drawn) [CBK007074F] | 85.6 | 
83 | Cc1ccc(S(=O)(=O)c2ccc(C)c(S(=O)(=O)N3CCCC3)c2)cc1S(=O)(=O)N1CCCC1 [CBK261772] | 78.9 | 
84 | CCc1ccc2c(c1)C(CCNC(=O)c1ncccc1F)C(=O)N2 (stereo not drawn) [CBK304727] | 106 | 
85 | COc1ccc(C)cc1NC(=O)CN(c1ccccc1)S(=O)(=O)c1ccc(F)cc1 [CBK268223] | 99.1 | 
86 | O=C(Nc1sc2c(c1C(=O)NCc1cccnc1)CCCC2)c1sc2ccccc2c1Cl [CBK266334] | 95.9 | 
87 | COc1cccc(C(NC(=O)C2CCN(Cc3cccs3)CC2)c2cnccn2)c1 (stereo not drawn) [CBK148572] | 106 | 
88 | O=C(O)c1cccc(S(=O)(=O)Nc2ccccc2C(=O)NCc2ccccc2)c1 [CBK296697] | 106 | 
89 | CC(C)(C)NC(=O)[C@@H]1CNC[C@]12Cc1ccccc1C(=O)N2 [CBK285294] | 103 | 
90 | COc1ccc(C)cc1N(CC(=O)Nc1ccccc1C(=O)O)S(C)(=O)=O [CBK264009] | 94.4 | 
